{"source": "ChEMBL document CHEMBL1137775", "about": "“Structure-based design of a benzodiazepine scaffold yields a potent allosteric inhibitor of hepatitis C NS5B RNA polymerase” (J Med Chem, 2009)", "key": {"[1]": {"tested_on": "Hepatitis C virus", "assay": "Inhibition of HCV 1b con1 isolate recombinant NS5B Cdelta21 RNA dependent RNA polymerase-mediated primer-dependent transcription by SPA", "set-up": "species or system Hepacivirus hominis"}, "[2]": {"tested_on": "Hepatitis C virus", "assay": "Antiviral activity against HCV 1b having NS5B E1202G/T1280I/K1846 mutation infected in human hepatoma cells after 3 days by replicon luciferase assay", "type": "functional, organism-based, Hepacivirus hominis", "conditions": "genotype 1b, 72 h"}, "[3]": {"tested_on": "Hepatitis C virus", "assay": "Binding affinity to HCV 1b con1 isolate recombinant NS5B Cdelta21 RNA dependent RNA polymerase overexpressed in Escherichia coli BL21(DE3) by surface plasmon resonance experiment", "set-up": "species or system Hepacivirus hominis"}}}
{"compound": "Cc1cccc(C(=O)N2c3cccc(O)c3NC3=C([C@H]2c2ccc(OCc4ccccc4)cc2F)S(=O)(=O)CC(C)(C)C3)n1", "values": [{"measurement": "IC50", "setting": "[1]", "result": 6700, "unit": "nM"}, {"measurement": "EC50", "setting": "[2]", "result": 4800, "unit": "nM"}]}
{"compound": "Cc1cccc(C(=O)N2c3cccc(O)c3NC3=C([C@@H]2c2ccc(OCc4ccccc4)cc2F)S(=O)(=O)CC(C)(C)C3)n1", "values": [{"measurement": "IC50", "setting": "[1]", "result": 26, "unit": "nM"}, {"measurement": "EC50", "setting": "[2]", "result": 29, "unit": "nM"}]}
{"compound": "Cc1cccc(C(=O)N2c3cccc(O)c3NC3=C(C(=O)CC(C)(C)C3)[C@@H]2c2ccc(OCc3ccccc3)cc2F)n1", "values": [{"measurement": "Kd", "setting": "[3]", "result": 15, "unit": "nM"}, {"measurement": "IC50", "setting": "[1]", "result": 74, "unit": "nM"}, {"measurement": "EC50", "setting": "[2]", "result": 400, "unit": "nM"}]}
{"compound": "CC(=O)N1c2cccc(O)c2NC2=C(C(=O)CC(C)(C)C2)[C@@H]1c1ccc(OCc2ccccc2)cc1Cl", "values": [{"measurement": "EC50", "setting": "[2]", "result": 1200, "unit": "nM"}]}
{"compound": "Cc1cccc(C(=O)N2c3cccc(O)c3NC3=C(C2c2ccc(OCc4ccccc4)cc2F)S(=O)(=O)CC(C)(C)C3)n1", "note": "(racemic)", "values": [{"measurement": "IC50", "setting": "[1]", "result": 120, "unit": "nM"}, {"measurement": "EC50", "setting": "[2]", "result": 52, "unit": "nM"}]}
